Values quoted from earlier work, collected in patent US7074553B2, “Retrovirus associated with myelodysplastic syndromes and uses thereof” (Rush University Medical Center, priority 2000, dated 2006).

Tested on: anemia and thrombocytopenia of MDS patients
Settings: administered as single agents

| Molecule | improvement of the anemia and the thrombocytopenia |
| --- | --- |
| granulocyte-macrophage colony-stimulating factor [GM-CSF] | rarely improves |
| G-CSF: colony-stimulating growth factor designed to stimulate proliferation of hematopoietic progenitors (protein, UniProt P09919 31-207, looked up) Granulocyte …: TPLGPASSLPQSFLLKCLEQVRKIQGDGAALQEKLVSECATYKLCHPEELVLLGHSLGIPWAPLSSCPSQALQLAGCLSQLHSGLFLYQGLLQALEGISPELGPTLDTLQLDVADFATTIWQQMEELGMAPALQPTQGAMPAFASAFQRRAGGVLVASHLQSFLEVSYRVLRHLAQP | rarely improves |
